The nature of this data set: Stability constant of the drug in relation to cyclodextrin (solubility method, Higuchi et al.). Type of data set: physicochemical. To be noted: 25°C, 24 hours shaking. How it is done: The stability constant of the drug in relation to cyclodextrin calculated by the solubility method is determined in the manner that, with the concentration of each drug being kept unchanged, a mixture of the drug and a cyclodextrin solution of varying concentration is shaken on a shaker at the rate of 200 cycles/min at 25°C for 24 hours to construct a solubility phase diagram of the drug at saturation in cyclodextrin solution and the stability constant is calculate by the method of Higuchi et al. [Advances in Analytical Chemistry and Instrumentation, Vol. 4, 144-148 (1965)].
The stability constant of the drug in relation to cyclodextrin was calculated applying the formula (8) on page 146, in "Advances in Analytical Chemistry and Instrumentation", Vol. 4, (1965).

As to `CC(=O)[C@@]1(O)CC[C@H]2[C@@H]3C[C@H](C)C4=CC(=O)C=C[C@]4(C)[C@@]3(F)[C@@H](O)C[C@@]21C` [Fluorometholone], the “Stability Constant α-CyD” value is 54 and the “Stability Constant β-CyD” value came out at 911.

Regarding `CCOC(=O)O[C@]1(C(=O)OCCl)CC[C@H]2[C@@H]3CCC4=CC(=O)C=C[C@]4(C)[C@H]3[C@@H](O)C[C@@]21C` [Loteprednol Etabonate], the “Stability Constant α-CyD” value is listed as 114 and the “Stability Constant β-CyD” value is listed as 305.

The values above are taken from patent EP0709099A2, “An aqueous nasal suspension comprising cyclodextrin” (Senju Pharmaceutical Co., Ltd., priority 1994, dated 1996).
